The values that follow come from paper PMC3493617 (Journal of the American Chemical Society, 2012).

The target of assay [1] is T1, AfUGM (Aspergillus fumigatus, UniProt Q4W1X2). In words: Stopped-flow kinetics of flavin reduction of AfUGM by NAD. It counts as biochemical. As to conditions: for kred / Kd / kred/Kd: AfUGM wild type; for kred / Kd: anaerobic, 15 °C; for kred: pH 7.0, flavin absorbance 452 nm; for Kd: pH 7.0, from fit of kobs; for kred/Kd: catalytic efficiency.
Assay [2] concerns the target T1, AfUGM. The experiment in a line: Kinetic isotope effect on flavin reduction of AfUGM with deuterated coenzymes. It counts as biochemical.
The target in assay [3] is Mycobacterium tuberculosis UGM (Mycobacterium tuberculosis, UniProt P9WIQ1). The experiment in a line: Reduction of Mycobacterium tuberculosis UGM by NADPH. As to conditions: estimated (Figure S5). In kind it is biochemical.
The next assay deals with AfUGM R91A (Aspergillus fumigatus, UniProt Q4W1X2, R91A). In kind it is biochemical. As to conditions: R91A mutant.
A further assay addresses TcUGM. As to conditions: cited from earlier work.
A further assay concerns the target AfUGM S93A (Aspergillus fumigatus, UniProt Q4W1X2, S93A). In kind it is biochemical. To be noted: S93A mutant.
Where [4] appears, read: pro-R H atom substituted with D.

Where “and” joins values, the source holds several entries; their conditions need not be identical. Equal values may be shown once.

As to `NC(=O)C1=CN([C@@H]2O[C@H](COP(=O)(O)OP(=O)(O)OC[C@H]3O[C@@H](n4cnc5c(N)ncnc54)[C@H](O)[C@@H]3O)[C@@H](O)[C@H]2O)C=CC1` [NADH], on AfUGM [1], the kred was 0.2 s⁻¹ and 0.172 ± 0.003 s⁻¹; the affinity, expressed as Kd, was 260 ± 20 µM; the kred/Kd is 670 M⁻¹ s⁻¹ and 670 ± 50 M⁻¹ s⁻¹. Also, the “KIE on flavin reduction” value on AfUGM [2] (setting [4]) worked out at 6.0 ± 0.7.

In the case of `NC(=O)C1=CN([C@@H]2O[C@H](COP(=O)(O)OP(=O)(O)OC[C@H]3O[C@@H](n4cnc5c(N)ncnc54)[C@H](OP(=O)(O)O)[C@@H]3O)[C@@H](O)[C@H]2O)C=CC1` [NADPH], the kred in assay [3] is 0.00002 s⁻¹; at AfUGM R91A (anaerobic, 15 °C, pH 7.0), 0.313 ± 0.008 s⁻¹; in the assay on TcUGM, 0.6 s⁻¹; on AfUGM S93A (anaerobic, 15 °C, pH 7.0), 0.17 ± 0.01 s⁻¹; on AfUGM [1] it was 3 s⁻¹ and 2.98 ± 0.078 s⁻¹. Besides, the Kd is 330 ± 20 µM on AfUGM R91A, 98 µM on TcUGM, 21 ± 8 µM at AfUGM S93A and 25 ± 2 µM at AfUGM [1]. The “Variational Effect (kred/Kd of variant)/(kred/Kd of AfUGM)” value on AfUGM R91A worked out at 0.008 ± 0.001; on AfUGM S93A it was 0.07 ± 0.03. The kred/Kd is 980 ± 70 M⁻¹ s⁻¹ at AfUGM R91A; 6000 M⁻¹ s⁻¹ in the assay on TcUGM; 8000 ± 3000 M⁻¹ s⁻¹ on AfUGM S93A; 120000 M⁻¹ s⁻¹ and 120000 ± 10000 M⁻¹ s⁻¹ on AfUGM [1]. The “catalytic efficiency of AfUGM relative to TcUGM” value at AfUGM [1] (kred/Kd AfUGM vs TcUGM) turned out to be 20 times. The “KIE on flavin reduction” value on AfUGM [2] (setting [4]) turned out to be 3.0 ± 0.1.

Take `[2H]C1C=CN(C2OC(COP(=O)(O)OP(=O)(O)OCC3OC(n4cnc5c(N)ncnc54)C(OP(=O)(O)O)C3O)C(O)C2O)C=C1C(N)=O` (stereo not shown) [pro-S NADPD]: the “KIE on flavin reduction” value on AfUGM [2] (pro-S deuterated coenzyme used to reduce AfUGM) is reported as 0.93 ± 0.03.
